The values that follow are results of earlier work, collected in patent US7977431B2, “Dithiocarbamic esters” (LANXESS Deutschland GmbH, priority 2002, dated 2011).

The conditions of one data set: pKa of the protonated substituent Z of the regulator, not of the regulator itself.
As to `C/C(Cl)=C/CSC(=S)n1cccc1` [Regulator compound (1), 3-chloro-2-butenyl 1H-pyrrole-1-carbodithioate], the “pKa value e Z-H” value was 17.0.

For the compound `C/C(Cl)=C/CSC(=S)n1ccnc1` [Regulator compound (2), 3-chloro-2-butenyl 1H-imidazole-1-carbodithioate], the “pKa value e Z-H” value is given as 14.5.

Take `CCN(C(=S)SCc1ccccc1)c1ccccc1` [Regulator compound (3), Benzyl ethyl-(phenyl)dithio-carbamate, reference compound]: the “pKa value e Z-H” value is 5.1.

As for `CCN(C(=S)SC(C)C(=O)OC)c1ccccc1` (stereo not shown) [Regulator compound (4), Methyl 2-({[ethyl-(phenyl)amino]-carbonothioyl}-sulphanyl)-propanoate, reference compound], the “pKa value e Z-H” value is 5.1.

As to `CCN(C(=S)SC(C(=O)OC)c1ccccc1)c1ccccc1` (stereo not shown) [Regulator compound (5), Methyl ({[ethyl-(phenyl)amino]-carbonothioyl}-sulphanyl)(phenyl) acetate, reference compound], the “pKa value e Z-H” value is given as 5.1.

As for `CCN(C(=S)SC/C=C(/C)Cl)c1ccccc1` [Regulator compound (6), reference compound], the “pKa value e Z-H” value is recorded as 5.1.

The data set is the same for the next values; noted with them: parent form Z-H of substituent Z.
Turning to `O=C1CCCCCN1` [2-azepanone], the pKa value was 16.6.

For `O=C1CCCCCCN1` [2-azocanone], the pKa value is 16.6.

With `O=C1CCCCN1` [2-piperidinone], the pKa value is listed as 16.6.

With `CC(=O)Nc1ccccc1` [N-phenylacetamide], the pKa value is listed as 16.6.

As to `c1ccc2c(c1)[nH]c1ccccc12` [carbazole], the pKa value was 17.

Consider `c1cn[nH]c1` [pyrazole], for which the pKa value is reported as 14.0.

For the compound N-(methyl/ethyl)acetamide, the pKa value is recorded as 16.6.
